Data taken from US10988478B1, “Pyrazolo[1,5a]pyrimidine derivatives as IRAK4 modulators” (Genentech, Inc., priority 2015, dated 2021).

Molecular target: human IRAK4 (Homo sapiens (Human), UniProt Q9NWZ3)
Experiment: IRAK4 kinase inhibition, Transcreener fluorescence polarization ADP assay
Assay type: biochemical
Conditions: recombinant full-length His6-IRAK4; 125 uM ATP; 90 min; Ki computed using ATP Km 642 uM
Method: Compounds were assayed for inhibition of human IRAK4 and IRAK1 catalytic activity using recombinant enzyme produced from insect cells. Full-length IRAK4 protein, carrying an N-terminal His6-Tag, was obtained from Life Technologies (Carlsbad, Calif., USA). The IRAK1 construct was produced internally and was comprised of IRAK1 residues Arg194 to Ser712, preceded by an NH2-terminal His6 tag and the coding sequence for glutathione-S-transferase.

human IRAK4, sequence (Q9NWZ3 whole entry): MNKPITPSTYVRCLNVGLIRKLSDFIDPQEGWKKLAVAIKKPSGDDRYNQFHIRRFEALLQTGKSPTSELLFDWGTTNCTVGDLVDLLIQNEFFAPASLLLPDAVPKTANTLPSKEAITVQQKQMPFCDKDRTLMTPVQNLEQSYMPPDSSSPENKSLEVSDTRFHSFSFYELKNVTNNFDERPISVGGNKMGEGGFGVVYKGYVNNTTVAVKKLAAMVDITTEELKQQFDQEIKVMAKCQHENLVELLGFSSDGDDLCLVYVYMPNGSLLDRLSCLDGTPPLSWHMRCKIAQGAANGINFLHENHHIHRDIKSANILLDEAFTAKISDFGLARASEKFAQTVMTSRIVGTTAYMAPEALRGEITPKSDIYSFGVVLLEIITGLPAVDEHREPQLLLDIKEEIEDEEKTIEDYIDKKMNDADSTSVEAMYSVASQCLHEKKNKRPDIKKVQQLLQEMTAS

| Structure (SMILES) | Ki [nM] |
| --- | --- |
| Cc1c2c(cc(NC(=O)c3cnn4cccnc34)c1N1CCOCC1)C[C@](C)(CO)O2 [Example 83, (R)—N-(2-(Hydroxymethyl)-2,7-dimethyl-6-morpholino-2,3-dihydrobenzofuran-5-yl)pyrazolo[1,5-a]pyrimidine-3-carboxamide] | 62 |
| Cc1c2c(cc(NC(=O)c3cnn4cccnc34)c1N1CCOCC1)C[C@@](C)(CO)O2 [Example 84, (S)—N-(2-(hydroxymethyl)-2,7-dimethyl-6-morpholino-2,3-dihydrobenzofuran-5-yl)pyrazolo[1,5-a]pyrimidine-3-carboxamide] | 24 |
| CC(=O)c1cnc2c(C(=O)Nc3cc4c(cc3N3CCOCC3)O[C@@](C)(CO)C4)cnn2c1 [Example 85, (R)-6-Acetyl-N-(2-(hydroxymethyl)-2-methyl-6-morpholino-2,3-dihydrobenzofuran-5-yl)pyrazolo[1,5-a]pyrimidine-3-carboxamide] | 17 |
| CC(=O)c1cnc2c(C(=O)Nc3cc4c(cc3N3CCOCC3)O[C@](C)(CO)C4)cnn2c1 [Example 86, (S)-6-Acetyl-N-(2-(hydroxymethyl)-2-methyl-6-morpholino-2,3-dihydrobenzofuran-5-yl)pyrazolo[1,5-a]pyrimidine-3-carboxamide] | 49 |
| C[C@]1(CO)Cc2cc(NC(=O)c3cnn4cccnc34)c(N3CCN(CCO)CC3)cc2O1 [Example 87, N-[(2R)-6-[4-(2-Hydroxyethyl)piperazin-1-yl]-2-(hydroxymethyl)-2-methyl-3H-benzofuran-5-yl]pyrazolo[1,5-a]pyrimidine-3-carboxamide] | 19 |
| C[C@@]1(CO)Cc2cc(NC(=O)c3cnn4cccnc34)c(N3CCN(CCO)CC3)cc2O1 [Example 88, N-[(2S)-6-[4-(2-Hydroxyethyl)piperazin-1-yl]-2-(hydroxymethyl)-2-methyl-3H-benzofuran-5-yl]pyrazolo[1,5-a]pyrimidine-3-carboxamide] | 7.6 |
| CC1(C)Cc2cc(NC(=O)c3cnn4cccnc34)c(C3CCN(CC(F)F)CC3)cc2O1 [Example 89, N-[6-[1-(2,2-Difluoroethyl)-4-piperidyl]-2,2-dimethyl-3H-benzofuran-5-yl]pyrazolo[1,5-a]pyrimidine-3-carboxamide] | 26 |
| CC1(C)Cc2cc(NC(=O)c3cnn4cccnc34)c(C3CCN(CC(F)(F)F)CC3)cc2O1 [Example 90, N-[2,2-Dimethyl-6-[1-(2,2,2-trifluoroethyl)-4-piperidyl]-3H-benzofuran-5-yl]pyrazolo[1,5-a]pyrimidine-3-carboxamide] | 43 |
| CC1(C)Cc2cc(NC(=O)c3cnn4cc(C(F)F)cnc34)c(N3CCOCC3)cc2O1 [Example 91, 6-(Difluoromethyl)-N-(2,2-dimethyl-6-morpholino-3H-benzofuran-5-yl)pyrazolo[1,5-a]pyrimidine-3-carboxamide] | 39 |
| CC1(C)Cc2cc(NC(=O)c3cnn4cccnc34)c(N3CC[C@](C)(CO)C3)cc2O1 [Example 94, (S)—N-(6-(3-(hydroxymethyl)-3-methylpyrrolidin-1-yl)-2,2-dimethyl-2,3-dihydrobenzofuran-5-yl)pyrazolo[1,5-a]pyrimidine-3-carboxamide] | 29 |
| CC1(C)Cc2cc(NC(=O)c3cnn4cccnc34)c(N3CC[C@@](C)(CO)C3)cc2O1 [Example 95, (R)—N-(6-(3-(hydroxymethyl)-3-methylpyrrolidin-1-yl)-2,2-dimethyl-2,3-dihydrobenzofuran-5-yl)pyrazolo[1,5-a]pyrimidine-3-carboxamide] | 25 |
| CC[C@@]1(C)Cc2cc(NC(=O)c3cnn4cccnc34)c(N3CCOCC3)cc2O1 [Example 96, (S)—N-(2-ethyl-2-methyl-6-morpholino-2,3-dihydrobenzofuran-5-yl)pyrazolo[1,5-a]pyrimidine-3-carboxamide] | 14 |
| C[C@]1(CO)Cc2cc(NC(=O)c3cnn4cccnc34)c(N3CCN(CC(F)F)CC3)cc2O1 [Example 98, N-[(2R)-6-[4-(2,2-Difluoroethyl)piperazin-1-yl]-2-(hydroxymethyl)-2-methyl-3H-benzofuran-5-yl]pyrazolo[1,5-a]pyrimidine-3-carboxamide] | 2.8 |
| C[C@@]1(CO)Cc2cc(NC(=O)c3cnn4cccnc34)c(N3CCN(CC(F)F)CC3)cc2O1 [Example 99, N-[(2S)-6-[4-(2,2-difluoroethyl)piperazin-1-yl]-2-(hydroxymethyl)-2-methyl-3H-benzofuran-5-yl]pyrazolo[1,5-a]pyrimidine-3-carboxamide] | 3.3 |
| CC1(C)Cc2cc(NC(=O)c3cnn4cccnc34)c(N3CCc4cncn4CC3)cc2O1 [Example 101, N-[2,2-dimethyl-6-(5,6,8,9-tetrahydroimidazo[1,5-d][1,4]diazepin-7-yl)-3H-benzofuran-5-yl]pyrazolo[1,5-a]pyrimidine-3-carboxamide] | 32 |
| CC1(C)Cc2cc(NC(=O)c3cnn4cccnc34)c(-n3cnc(CO)c3)cc2O1 [Example 102, N-[6-[4-(hydroxymethyl)imidazo 1-1-yl]-2,2-dimethyl-3H-benzofuran-5-yl]pyrazolo[1,5-a]pyrimidine-3-carboxamide] | 190 |

| Structure (SMILES) | Ki [nM] |
| --- | --- |
| CC1(C)Cc2cc(NC(=O)c3cnn4cccnc34)c(-n3ccnc3)cc2O1 [Example 103, N-(6-imidazol-1-yl-2,2-dimethyl-3H-benzofuran-5-yl)pyrazolo[1,5-a]pyrimidine-3-carboxamide] | 88 |
| CC1CCCN1c1cc2c(cc1NC(=O)c1cnn3cccnc13)CC(C)(C)O2 (centres unmarked) [Example 104, N-[2,2-dimethyl-6-(2-methylpyrrolidin-1-yl)-3H-benzofuran-5-yl]pyrazolo[1,5-a]pyrimidine-3-carboxamide] | 22 |
| CC1(O)CN(c2cc3c(cc2NC(=O)c2cnn4cccnc24)CC(C)(C)O3)C1 [Example 105, N-[6-(3-hydroxy-3-methyl-azetidin-1-yl)-2,2-dimethyl-3H-benzofuran-5-yl]pyrazolo[1,5-a]pyrimidine-3-carboxamide] | 720 |
| CC1(C)Cc2cc(NC(=O)c3cnn4cccnc34)c(N3CCC4(CCOC4)CC3)cc2O1 [Example 106, N-(2,2-dimethyl-6-(2-oxa-8-azaspiro[4.5]decan-8-yl)-2,3-dihydrobenzofuran-5-yl)pyrazolo[1,5-a]pyrimidine-3-carboxamide] | 2.4 |
| CC1(C)Cc2cc(NC(=O)c3cnn4cccnc34)c(N3CCC4(COC4)C3)cc2O1 [Example 107, N-(2,2-dimethyl-6-(2-oxa-6-azaspiro[3.4]octan-6-yl)-2,3-dihydrobenzofuran-5-yl)pyrazolo[1,5-a]pyrimidine-3-carboxamide] | 79 |
| CC1(C)Cc2cc(NC(=O)c3cnn4cccnc34)c(N3CCC4(CCOC4)C3)cc2O1 (centres unmarked) [Example 108, N-(2,2-dimethyl-6-(2-oxa-7-azaspiro[4.4]nonan-7-yl)-2,3-dihydrobenzofuran-5-yl)pyrazolo[1,5-a]pyrimidine-3-carboxamide] | 79 |
| CC1(C)Cc2cc(NC(=O)c3cnn4cccnc34)c(N3CCC4(CCCC4O)CC3)cc2O1 (centres unmarked) [Example 109, N-(6-(1-hydroxy-8-azaspiro[4.5]decan-8-yl)-2,2-dimethyl-2,3-dihydrobenzofuran-5-yl)pyrazolo[1,5-a]pyrimidine-3-carboxamide] | 4.2 |
| CC1(C)Cc2cc(NC(=O)c3cnn4cccnc34)c(N3CCC4(CC3)CC(O)C4)cc2O1 [Example 110, N-(6-(2-hydroxy-7-azaspiro[3.5]nonan-7-yl)-2,2-dimethyl-2,3-dihydrobenzofuran-5-yl)pyrazolo[1,5-a]pyrimidine-3-carboxamide] | 2.5 |
| CC1(C)Cc2cc(NC(=O)c3cnn4cccnc34)c(N3CCC4(CC3)CNC4=O)cc2O1 [Example 111, N-[2,2-dimethyl-6-(3-oxo-2,7-diazaspiro[3.5]nonan-7-yl)-3H-benzofuran-5-yl]pyrazolo[1,5-a]pyrimidine-3-carboxamide] | 4.8 |
| CC1(C)Cc2cc(NC(=O)c3cnn4cccnc34)c(N3CC4C(C3)C4(F)F)cc2O1 (centres unmarked) [Example 112, N-(6-(6,6-difluoro-3-azabicyclo[3.1.0]hexan-3-yl)-2,2-dimethyl-2,3-dihydrobenzofuran-5-yl)pyrazolo[1,5-a]pyrimidine-3-carboxamide] | 78 |
| CC1(C)Cc2cc(NC(=O)c3cnn4cccnc34)c(-c3ccc(=O)[nH]c3)cc2O1 [Example 113, N-[2,2-Dimethyl-6-(6-oxo-1H-pyridin-3-yl)-3H-benzofuran-5-yl]pyrazolo[1,5-a]pyrimidine-3-carboxamide] | 320 |
| CC1(C)Cc2cc(NC(=O)c3cnn4cccnc34)c(N3CCC4(CC3)COC4)cc2O1 [Example 114, N-(2,2-Dimethyl-6-(2-oxa-7-azaspiro[3.5]nonan-7-yl)-2,3-dihydrobenzofuran-5-yl)pyrazolo[1,5-a]pyrimidine-3-carboxamide] | 17 |
| CC1(C)Cc2cc(NC(=O)c3cnn4cccnc34)c(N3CCC(O)C(F)C3)cc2O1 (centres unmarked) [Example 115, N-(6-(3-Fluoro-4-hydroxypiperidin-1-yl)-2,2-dimethyl-2,3-dihydrobenzofuran-5-yl)pyrazolo[1,5-a]pyrimidine-3-carboxamide] | 9.5 |
| CC1(C)Cc2cc(NC(=O)c3cnn4cccnc34)c(N3CCCNCC3)cc2O1 [Example 116, N-(6-(1,4-diazepan-1-yl)-2,2-dimethyl-2,3-dihydrobenzofuran-5-yl)pyrazolo[1,5-a]pyrimidine-3-carboxamide] | 18 |
| CC1(C)Cc2cc(NC(=O)c3cnn4cccnc34)c(N3CCCOCC3)cc2O1 [Example 117, N-(2,2-dimethyl-6-(1,4-oxazepan-4-yl)-2,3-dihydrobenzofuran-5-yl)pyrazolo[1,5-a]pyrimidine-3-carboxamide] | 17 |
| CC1(C)Cc2cc(NC(=O)c3cnn4cccnc34)c(N3CCOCC3)cc2S1(=O)=O [Example 118, N-[2,2-Dimethyl-6-(morpholin-4-yl)-1,1-dioxo-2,3-dihydro-benzothiophen-5-yl]pyrazolo[1,5-a]pyrimidine-3-carboxamide] | 14 |
